The series deals with ROUNDUP READY FLEX cotton.
The mark [1] stands for this setting: Table M1a, […], glyphosate 2520 g/ha, PMIDA 11.9 g/ha, control = no additive.
Where [2] appears, read: Table M1a, […], glyphosate 5040 g/ha, PMIDA 23.9 g/ha, control = no additive.
[3] abbreviates: Table D1a Study 2, glyphosate:dye 10:1, glyphosate 2520 g/ha, PMIDA 11.9 g/ha.
Setting [4] is: Table D1a Study 2, glyphosate:dye 10:1, glyphosate 5040 g/ha, PMIDA 23.9 g/ha.
Where [5] appears, read: Table D1a Study 3, glyphosate:dye 100:1, glyphosate 2520 g/ha, PMIDA 11.9 g/ha.
The mark [6] stands for this setting: Table D1a Study 3, glyphosate:dye 100:1, glyphosate 5040 g/ha, PMIDA 23.9 g/ha.
The mark [7] stands for this setting: Table D1a Study 2, glyphosate:dye 100:1, glyphosate 2520 g/ha, PMIDA 11.9 g/ha.
[8] abbreviates: Table D1a Study 2, glyphosate:dye 100:1, glyphosate 5040 g/ha, PMIDA 23.9 g/ha.
Setting [9] is: Table D1a Study 2, glyphosate:dye 1000:1, glyphosate 2520 g/ha, PMIDA 11.9 g/ha.
[10] abbreviates: Table D1a Study 2, glyphosate:dye 1000:1, glyphosate 5040 g/ha, PMIDA 23.9 g/ha.
[11] abbreviates: Table M3a, […], glyphosate 1260 g/ha, PMIDA 3.95 g/ha.
[12] abbreviates: Table M3a, […], glyphosate 2520 g/ha, PMIDA 7.90 g/ha.
Setting [13] is: Table M3a, […], glyphosate 5040 g/ha, PMIDA 15.8 g/ha.
Where [14] appears, read: Table AO1a, […], glyphosate 2520 g/ha, PMIDA 11.9 g/ha.
The mark [15] stands for this setting: Table AO1a, […], glyphosate 5040 g/ha, PMIDA 23.9 g/ha.
The mark [16] stands for this setting: Table H2a, […], glyphosate 2520 g/ha, PMIDA 11.9 g/ha.
Where [17] appears, read: Table H2a, […], glyphosate 5040 g/ha, PMIDA 23.9 g/ha.

Consider 27 molecules from US12089591B2 (priority 2005, dated 2024).

“And” between values parts separate entries of the source, which are not always exact repeats. Identical values can stand only once. Like-named read-outs stand apart in the source and are kept apart here.

On to `OCCCCO` [1,4-butanediol], for which the “decrease of necrosis (in words)” value (in vivo) is recorded as “significantly decreased necrosis”.

Take `CC(O)CC(C)(C)O` (stereo not shown) [2-methyl-2,4-pentanediol]: the “decrease of necrosis (in words)” value (in vivo) is reported as “significantly decreased necrosis”.

`CC(O)C#CC(C)O` (stereo not shown) [3-hexyne-2,5-diol]: for the setting “in vivo”, the “decrease of necrosis (in words)” value is given as “significantly decreased necrosis”.

Regarding `[Ca+2].[Cl-].[Cl-]` [Calcium chloride, Calcium chloride (anhydrous)], the “Necrosis Reduction Relative to Control” value is, setting by setting: under setting [1], 32%; under setting [2], 6%.

Take `O=[N+]([O-])[O-].O=[N+]([O-])[O-].[Cu+2]` [Cupric Nitrate, Cupric Nitrate (2.1) hydrate]: the “Necrosis Reduction Relative to Control” value is, setting by setting: under setting [1], 92%; under setting [2], 68%.

For the molecule `OCCOCCO` [Diethylene glycol], the “decrease of necrosis (in words)” value (in vivo) was “significantly decreased necrosis”.

In the case of `CCN(Cc1cccc(S(=O)(=O)[O-])c1)c1ccc(C(=C2C=CC(=[N+](CC)Cc3cccc(S(=O)(=O)[O-])c3)C=C2)c2ccccc2S(=O)(=O)[O-])cc1.[Na+].[Na+]` [FD&C Blue #1], under setting [3], the “Necrosis Reduction Relative to Coontrol” value turned out to be 66%. Under setting [4], the “% necrosis (2 DAT)” value is 46% and the “Necrosis Reduction Relative to Coontrol” value is 41%.

Consider `Nc1cc(S(=O)(=O)[O-])cc2cc(S(=O)(=O)[O-])c(N=Nc3ccccc3)c(O)c12.[Na+].[Na+]` [FD&C Red #33], for which the “Necrosis Reduction Relative to Coontrol” value is, setting by setting: under setting [5], 6%; under setting [6], 0%.

With `COc1cc(S(=O)(=O)[O-])c(C)cc1N=Nc1c(O)ccc2cc(S(=O)(=O)[O-])ccc12.[Na+].[Na+]` [FD&C Red #40], the “Necrosis Reduction Relative to Coontrol” value under setting [5] is given as 11% and the “Necrosis Reduction Relative to Coontrol” value under setting [6] was determined as 0%.

`CCN(Cc1cccc(S(=O)(=O)[O-])c1)c1ccc(C(=C2C=CC(=[N+](C)C)C=C2)c2ccc(N(CC)Cc3cccc(S(=O)(=O)O)c3)cc2)cc1` [FD&C Violet #1]: the “Necrosis Reduction Relative to Coontrol” value runs as follows: under setting [5], 37%; under setting [6], 0%.

Turning to `O=C([O-])c1nn(-c2ccc(S(=O)(=O)[O-])cc2)c(O)c1N=Nc1ccc(S(=O)(=O)[O-])cc1.[Na+].[Na+].[Na+]` [FD&C Yellow #5, 3-carboxy-5-hydroxy-1-p-sulfophenyl-4-p-sulfophenylazopyrazole trisodium salt], the “Necrosis Reduction Relative to Coontrol” value is, setting by setting: (Table D1a Study 1, glyphosate:dye 10:1, glyphosate 2520 g/ha, PMIDA 11.9 g/ha) 96%; (Table D1a Study 1, glyphosate:dye 10:1, glyphosate 5040 g/ha, PMIDA 23.9 g/ha) 55%; under setting [3], 84%; under setting [4], 51%; under setting [7], 18%; under setting [8], 29%. Moreover, the “Necrosis Reduction Relative to Coontrol” value under setting [9] was determined as 26% and the “Necrosis Reduction Relative to Coontrol” value under setting [10] was determined as 12%. Further, the “% necrosis (2 DAT)” value is, setting by setting: under setting [4], 38%; under setting [7], 31%; under setting [8], 55%; under setting [9], 28%; under setting [10], 69%. In addition, where the note is “dye as safening agent in glyphosate spray solutions”, the “decrease of PMIDA-induced necrosis by dye (in words)” value was “significantly decrease”.

As for `CCN(Cc1cccc(S(=O)(=O)[O-])c1)c1ccc(C(=C2C=CC(=[N+](CC)Cc3cccc(S(=O)(=O)[O-])c3)C=C2)c2ccc(O)cc2S(=O)(=O)[O-])cc1.[Na+].[Na+]` [Fast Green FCF], the “Necrosis Reduction Relative to Coontrol” value by setting is: under setting [5], 2%; under setting [6], 0%.

As for `[Cl][Fe]([Cl])[Cl]` [Ferric chloride], the “Necrosis Reduction Relative to Control” value under setting [1] is reported as 100% and the “Necrosis Reduction Relative to Control” value under setting [2] was 97%.

Turning to `O=C([O-])CN(CCN(CC(=O)[O-])CC(=O)[O-])CC(=O)[O-].[Fe+3].[Na+]` [Iron + EDTA, iron(III) EDTA sodium salt hydrate], the “Necrosis Reduction Relative to Control” value under setting [11] came to 100%, the “Necrosis Reduction Relative to Control” value under setting [12] came out at 68% and the “Necrosis Reduction Relative to Control” value under setting [13] worked out at 45%. For the setting “in vivo”, the “reduction in necrosis, comparison of iron sources (in words)” value is “significantly less effective”.

As for `O=C([O-])CC(O)(CC(=O)[O-])C(=O)[O-].[Fe+3]` [Iron citrate, iron(III) citrate], the “Necrosis Reduction Relative to Control” value by setting is: under setting [11], 100%; under setting [12], 97%; under setting [13], 75%. Further, the “reduction in necrosis, comparison of iron sources (in words)” value (in vivo) is given as “no significant difference”.

For the molecule `O.O.O.O.O.O.O.O=S(=O)([O-])[O-].[Mg+2]` [Magnesium sulfate, Magnesium sulfate heptahydrate], under “in vivo”, the “Necrosis Reduction Relative to Control” value was 0% and 6%; the “effect of metal salt on necrosis (in words)” value is on record as “relatively little impact”.

Consider `O=C(O)CN(CC(=O)O)CP(=O)(O)O` [PMIDA, N-(phosphonomethyl)iminodiacetic acid], for which the “Maximum necrosis (plateau)” value (Example 1, highest application rate and higher levels of PMIDA) is recorded as 80-85%.

As to `O=S([O-])[O-].[Na+].[Na+]` [Sodium sulfite, sodium sulfite], the “Necrosis Reduction Relative to Control” value by setting is: under setting [14], 39%; under setting [15], 0%.

`CC(C)CC(C)(O)C#CC(C)(O)CC(C)C` (stereo not shown) [Surfynol 104A]: the “Necrosis Reduction Relative to Control” value under setting [16] came out at 50% and the “Necrosis Reduction Relative to Control” value under setting [17] is given as 8%. For the same molecule, where the note is “in vivo”, the “decrease of necrosis (in words)” value was “significantly decreased necrosis”.

Consider `COc1ccc(O)c(C(C)(C)C)c1` [butylated hydroxy anisole, butylated hydroxyanisole], for which the “Necrosis Reduction Relative to Control” value reads like this: under setting [14], 80%; under setting [15], 29%.

`OCC(O)CO` [glycerin]: the “Necrosis Reduction Relative to Control” value is, setting by setting: (Table H1a Study 1, additive 2% v/v, glyphosate 2520 g/ha, PMIDA 11.9 g/ha) 12%; (Table H1a Study 1, additive 2% v/v, glyphosate 5040 g/ha, PMIDA 23.9 g/ha) 14%; (Table H1a Study 1, additive 4% v/v, glyphosate 2520 g/ha, PMIDA 11.9 g/ha) 45%; (Table H1a Study 1, additive 4% v/v, glyphosate 5040 g/ha, PMIDA 23.9 g/ha) 41%. For the setting “in vivo”, the “reduction of necrosis (in words)” value was “significantly reduced necrosis”.

As to `CCC(CO)(CO)CO` [trimethylol-propane], the “Necrosis Reduction Relative to Control” value runs as follows: under setting [16], 0%; under setting [17], 0%.

`NC(N)=O` [urea]: the “Necrosis Reduction Relative to Control” value by setting is: (Table H1a Study 2, glycerin 4% v/v or urea 8% v/v, glyphosate 2520 g/ha, PMIDA 11.9 g/ha) 36%; (Table H1a Study 2, glycerin 4% v/v or urea 8% v/v, glyphosate 5040 g/ha, PMIDA 23.9 g/ha) 13%. The “reduction of necrosis (in words)” value (in vivo) is given as “significantly reduced necrosis”.

Turning to Aluminum chloride hexahydrate, under “in vivo”, the “Necrosis Reduction Relative to Control” value is 95% and 71%.

For the molecule Zinc sulfate heptahydrate, the “effect of metal salt on necrosis (in words)” value (in vivo) is on record as “significantly reduce necrosis”.

Consider polyethylene glycol 200, for which the “decrease of necrosis (in words)” value (in vivo) is “significantly decreased necrosis”.

Consider polyethylene glycol 900, for which the “decrease of necrosis (in words)” value (in vivo) is given as “significantly decreased necrosis”.
